Assay results published in PMC7614683, “A small molecule PI3Kα activator for cardioprotection and neuroregeneration” (Nature, 2023).
Where two headings read alike, the source gives them in different places.

Assays:
Assay in all cases: SelectScreen Z-LYTE kinase activity assay (SI Table 6)
Format in all cases: biochemical
[1] = molecular target: T1, protein kinases of the Z-LYTE panel (Homo sapiens, UniProt P54760)
T1 sequence (P54760 16-987): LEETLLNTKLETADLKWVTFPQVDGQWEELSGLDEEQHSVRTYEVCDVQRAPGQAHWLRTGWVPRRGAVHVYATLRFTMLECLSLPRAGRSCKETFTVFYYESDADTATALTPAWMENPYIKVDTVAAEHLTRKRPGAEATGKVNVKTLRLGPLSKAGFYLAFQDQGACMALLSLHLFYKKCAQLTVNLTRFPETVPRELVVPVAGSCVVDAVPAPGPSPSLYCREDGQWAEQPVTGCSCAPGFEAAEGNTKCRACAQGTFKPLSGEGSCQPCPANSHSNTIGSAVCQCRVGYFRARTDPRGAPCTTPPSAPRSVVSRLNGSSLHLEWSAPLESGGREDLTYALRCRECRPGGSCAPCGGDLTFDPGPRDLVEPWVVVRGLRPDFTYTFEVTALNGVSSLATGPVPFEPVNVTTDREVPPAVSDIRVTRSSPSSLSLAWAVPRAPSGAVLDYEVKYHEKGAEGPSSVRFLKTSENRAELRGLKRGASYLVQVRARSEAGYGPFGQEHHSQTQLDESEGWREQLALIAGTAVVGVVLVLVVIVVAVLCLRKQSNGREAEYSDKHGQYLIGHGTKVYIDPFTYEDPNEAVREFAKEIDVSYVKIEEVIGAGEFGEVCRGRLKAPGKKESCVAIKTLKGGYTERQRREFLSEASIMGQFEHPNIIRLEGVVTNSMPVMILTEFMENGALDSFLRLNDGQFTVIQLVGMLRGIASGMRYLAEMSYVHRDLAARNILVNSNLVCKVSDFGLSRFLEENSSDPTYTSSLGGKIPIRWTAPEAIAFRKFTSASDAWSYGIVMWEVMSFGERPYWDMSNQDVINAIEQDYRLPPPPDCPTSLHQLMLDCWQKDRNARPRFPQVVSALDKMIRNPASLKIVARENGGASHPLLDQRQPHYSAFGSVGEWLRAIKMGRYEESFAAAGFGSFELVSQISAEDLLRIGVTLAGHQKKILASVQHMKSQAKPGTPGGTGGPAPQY
In short: (§1)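 A single compound concentration of 1 μM was profiled in the vendor's Adapta, Lantha and Z-LYTE kinase assays. In gel-based follow-ups with 200 μM compound, phosphorylation was resolved on Phos-tag SDS-PAGE and quantified by Coomassie. The ATM run used 1 mM ATP with GST-p53 for 30 min, and the mTORC1 run used 250 μM ATP with 4E-BP1 for 3 h.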

[2] = molecular target: protein kinases of the Z-LYTE panel (Homo sapiens, UniProt Q15418)
In short: as §1

[3] = molecular target: protein kinases of the Z-LYTE panel (Homo sapiens, UniProt P49759)
In short: as §1

[4] = molecular target: T2, protein kinases of the Z-LYTE panel (Homo sapiens, UniProt Q06418)
T2 sequence (Q06418 41-890): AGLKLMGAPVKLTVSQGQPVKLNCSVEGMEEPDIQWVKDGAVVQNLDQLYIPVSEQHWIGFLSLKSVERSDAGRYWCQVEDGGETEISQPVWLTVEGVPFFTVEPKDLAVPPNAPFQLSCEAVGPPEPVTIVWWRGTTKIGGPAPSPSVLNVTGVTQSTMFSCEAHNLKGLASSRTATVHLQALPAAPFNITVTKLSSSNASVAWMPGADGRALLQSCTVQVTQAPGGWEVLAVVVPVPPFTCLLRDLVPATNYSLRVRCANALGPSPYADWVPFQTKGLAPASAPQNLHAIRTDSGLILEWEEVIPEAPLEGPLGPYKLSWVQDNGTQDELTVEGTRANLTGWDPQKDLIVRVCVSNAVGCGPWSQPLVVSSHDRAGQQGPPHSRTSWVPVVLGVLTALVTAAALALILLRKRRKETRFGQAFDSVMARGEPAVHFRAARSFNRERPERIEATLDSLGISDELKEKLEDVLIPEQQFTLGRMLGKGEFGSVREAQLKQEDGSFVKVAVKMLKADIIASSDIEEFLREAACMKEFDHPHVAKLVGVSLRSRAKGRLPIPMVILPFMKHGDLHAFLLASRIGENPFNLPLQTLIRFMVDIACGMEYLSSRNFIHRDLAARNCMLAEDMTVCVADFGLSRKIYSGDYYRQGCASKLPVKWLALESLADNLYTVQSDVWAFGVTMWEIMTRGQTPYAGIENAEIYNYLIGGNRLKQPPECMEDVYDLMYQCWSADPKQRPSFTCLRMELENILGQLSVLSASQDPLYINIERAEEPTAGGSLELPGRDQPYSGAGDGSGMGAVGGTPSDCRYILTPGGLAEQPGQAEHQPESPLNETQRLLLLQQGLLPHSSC
In short: as §1

Chain of protein kinases of the Z-LYTE panel (Homo sapiens, UniProt P49759) (P49759 whole entry): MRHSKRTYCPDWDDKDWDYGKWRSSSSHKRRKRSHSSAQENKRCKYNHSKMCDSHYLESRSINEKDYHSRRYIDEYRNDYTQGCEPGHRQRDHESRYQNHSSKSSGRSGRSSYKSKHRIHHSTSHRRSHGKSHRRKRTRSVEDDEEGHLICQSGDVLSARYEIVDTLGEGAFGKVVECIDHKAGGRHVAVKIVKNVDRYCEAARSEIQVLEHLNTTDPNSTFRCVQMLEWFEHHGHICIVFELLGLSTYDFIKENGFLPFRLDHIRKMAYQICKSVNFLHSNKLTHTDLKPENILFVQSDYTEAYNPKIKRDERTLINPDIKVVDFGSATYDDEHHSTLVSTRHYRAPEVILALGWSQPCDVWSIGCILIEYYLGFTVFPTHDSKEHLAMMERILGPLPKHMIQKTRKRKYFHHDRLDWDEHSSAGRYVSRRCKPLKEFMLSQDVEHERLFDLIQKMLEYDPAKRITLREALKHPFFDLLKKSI
Chain of protein kinases of the Z-LYTE panel (Homo sapiens, UniProt Q15418) (Q15418 whole entry): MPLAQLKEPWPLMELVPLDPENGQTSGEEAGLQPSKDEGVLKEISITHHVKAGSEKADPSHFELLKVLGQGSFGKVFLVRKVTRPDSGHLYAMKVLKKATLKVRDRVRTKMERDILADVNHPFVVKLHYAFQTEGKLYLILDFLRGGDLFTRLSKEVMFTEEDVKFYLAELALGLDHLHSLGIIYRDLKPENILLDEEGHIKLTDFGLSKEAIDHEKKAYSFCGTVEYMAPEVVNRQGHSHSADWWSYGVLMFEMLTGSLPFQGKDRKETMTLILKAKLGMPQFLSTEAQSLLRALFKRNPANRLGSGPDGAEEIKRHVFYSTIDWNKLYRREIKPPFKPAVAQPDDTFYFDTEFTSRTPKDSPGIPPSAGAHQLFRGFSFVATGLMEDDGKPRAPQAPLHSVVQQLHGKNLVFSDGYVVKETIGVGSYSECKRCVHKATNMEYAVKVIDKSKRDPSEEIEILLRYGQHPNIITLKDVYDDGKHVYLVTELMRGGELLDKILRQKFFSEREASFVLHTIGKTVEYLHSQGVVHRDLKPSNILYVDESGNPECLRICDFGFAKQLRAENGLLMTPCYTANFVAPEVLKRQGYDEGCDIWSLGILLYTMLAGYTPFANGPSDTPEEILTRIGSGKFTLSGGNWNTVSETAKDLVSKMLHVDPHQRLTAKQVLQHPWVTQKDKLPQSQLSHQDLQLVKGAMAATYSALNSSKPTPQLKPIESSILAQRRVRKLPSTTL

CCN1CCN(c2ccc(Nc3cc(Nc4cccc5c4N(C(C)=O)CC5)ccn3)cc2)CC1 [Compound 1938]
inhibition at 1 µM ([1]; read-out: % Inhibition Point 1): 10%
inhibition at 1 µM ([1]; read-out: % Inhibition Point 2): -1.75%
inhibition at 1 µM ([1]; read-out: % Inhibition mean): 4%
inhibition at 1 µM ([2]; read-out: % Inhibition Point 1): 6%
inhibition at 1 µM ([2]; read-out: % Inhibition Point 2): 5.47%
inhibition at 1 µM ([2]; read-out: % Inhibition mean): 6%
inhibition at 1 µM ([3]; read-out: % Inhibition Point 1): 2.18%
inhibition at 1 µM ([3]; read-out: % Inhibition Point 2): 6%
inhibition at 1 µM ([3]; read-out: % Inhibition mean): 4%
inhibition at 1 µM ([4]; read-out: % Inhibition Point 1): 8%
inhibition at 1 µM ([4]; read-out: % Inhibition Point 2): 7.56%
inhibition at 1 µM ([4]; read-out: % Inhibition mean): 7.59%
